Patent publication US11839689B2, “Formulations of enzalutamide” (Astellas Pharma Inc., priority 2012, dated 2023)

Legend:
Type in all cases: physicochemical
[1] = Membrane-permeation (MP) dissolution test
Protocol: The membrane permeability test described in the Examples below is carried out as follows. A drug-permeable membrane is placed between feed and permeate reservoirs. A sufficient quantity of test composition is added to a feed test medium and placed in the feed reservoir, while a water immiscible organic solution, such as a 60/40 mixture of decanol/decane, is placed in the permeate reservoir. Samples are removed from the permeate reservoir and analyzed for the concentration of drug as a function of time. […] Further details of this membrane permeation test are disclosed in U.S. Pat. No. 7,611,630 B2.
The MP-dissolution test, whose details are described above, measures a capability of low solubility drug formulations which is not measured in the microcentrifuge dissolution test utilized in Examples 4 and 7. This test mimics an aspect of the in vivo situation in the GI tract. In the in vivo situation, it is generally accepted that free drug in solution (i.e. individual drug molecules dissolved in the GI medium without association with formulation components) is the species which is absorbed across the gastrointestinal wall into the bloodstream. As free drug is absorbed, the formulation must be capable of supplying more free drug for absorption. The membrane permeation test measures the amount of drug which crosses a polymeric membrane (as a model of the GI wall) over time, and thus reflects the ability of the formulation to resupply free drug in solution to be further passively transported across the polymeric membrane. In Table 8.1 below, Maximum Flux is the maximum observed rate of permeation across the polymeric membrane, based on the slope of the absorption curve over any period within the 240 minute duration of the experiment, normalized for membrane area. Total drug recovery is the % of the initial drug dose which has crossed the membrane when the test ended at 240 minutes.
The membrane permeation test was carried out for 60% A enzalutamide SDDs with HPMCAS-M, HPMC E3 Prem, HPMCP-55, and Eudragit-L100, as described in Example 8.

[2] = SEM particle morphology before and after 1 day at 50° C./75% RH; settings: after 1 day exposure to 50° C./75% RH
Protocol: Scanning electron micrographs (SEMs) were obtained for samples before and after 1 day exposure to a 50° C./75% RH environment. After exposure of these samples to this challenging storage environment, no crystals were seen, indicative of the ability of these samples to maintain the amorphous character of enzalutamide. […] Thus these three embodiments would require controlled storage conditions to maintain their efficacy.

[3] = Microcentrifuge dissolution test after suspension in 0.5% methylcellulose for 2 hours
Protocol: Drugs and drug formulations are sometimes dosed as aqueous suspensions, particularly for pediatric patients. The ability of various enzalutamide SDDs to retain their ability to maintain drug supersaturation in vitro was assessed by using the microcentrifuge dissolution test to measure drug dissolution after suspension in 0.5% methylcellulose in water for 2 hours. Methylcellulose is a standard viscosifying suspending agent which is used to maintain drug particles in suspension in oral suspension dosage forms. The table below presents in vitro dissolution performance before and after suspension in 0.5% methylcellulose.

[4] = Microcentrifuge dissolution test in Model Fasted Duodenal Solution; settings: for Enzalutamide Concentration, 0 min / Enzalutamide Concentration, 4 min / Enzalutamide Concentration, 10 min / Enzalutamide Concentration, 20 min / Enzalutamide Concentration, 40 min / Enzalutamide Concentration, 90 min / Enzalutamide Concentration, 1200 min: MFDS pH 6.5; for Enzalutamide Concentration, 0 min / Enzalutamide Concentration, 4 min / Enzalutamide Concentration, 10 min / Enzalutamide Concentration, 20 min / Enzalutamide Concentration, 40 min / Enzalutamide Concentration, 90 min / Enzalutamide Concentration, 1200 min / AUC90 (area under the curve at 90 minutes) / Cmax, 90 (maximum drug concentration through 90 minutes): dose 200 μg/ml; for AUC90 (area under the curve at 90 minutes) / Cmax, 90 (maximum drug concentration through 90 minutes): Table 4.2, MFDS
Description: The in vitro dissolution test to evaluate enhanced drug concentration in aqueous solution can be conducted by (1) adding with agitation a sufficient quantity of control composition, that is, the crystalline enzalutamide alone, to the in vitro test medium, typically MFD or PBS solution, to determine the maximum concentration of the enzalutamide achieved under the conditions of the test; (2) adding with agitation a sufficient quantity of test composition (e.g., the enzalutamide and polymer) in an equivalent test medium, such that if all the enzalutamide dissolved, the theoretical concentration of enzalutamide would exceed the observed maximum concentration of enzalutamide by a factor of about 20; and (3) comparing the measured MDC and/or aqueous concentration versus time AUC90 of the test composition in the test medium with the maximum concentration, and/or the aqueous concentration versus time AUC90 of the control composition. In conducting such a dissolution test, the amount of test composition or control composition used is an amount such that if all of the enzalutamide dissolved, the test enzalutamide concentration would be at least about 20-fold that of the control enzalutamide concentration.
The concentration of dissolved enzalutamide is typically measured as a function of time by sampling the test medium and plotting enzalutamide concentration in the test medium vs. time so that the MDC can be ascertained. The MDC is taken to be the maximum value of dissolved enzalutamide measured over the duration of the test. The enzalutamide concentration versus time AUC90 is calculated by integrating the concentration versus time curve over any 90-minute time period between the time of introduction of the composition into the aqueous use environment (time equals zero) and 270 minutes following introduction to the use environment (time equals 270 minutes). Typically, when the composition reaches its MDC rapidly, in less than about 30 minutes, the time interval used to calculate AUC90 is from time equals zero to time equals 90 minutes. However, if the AUC90 over any 90-minute time period described above of a composition meets the criteria of compositions described herein, then the composition is included in compositions of this disclosure. The time period 270 min is chosen because of its physiological relevance. Drug absorption in mammals generally occurs in the small intestine, and the small intestinal transit time in humans is approximately 4.5 hr, or 270 min.
To avoid large enzalutamide particulates which would give an erroneous determination, the test solution is either filtered or centrifuged. “Dissolved enzalutamide” is typically taken as that material that either passes a 0.45 micron syringe filter or, alternatively, the material that remains in the supernatant following centrifugation. Filtration can be conducted using a 13 mm, 0.45 micron polyvinylidine difluoride syringe filter, such as the filter sold by Scientific Resources under the trademark TITAN′. Centrifugation is typically carried out in a polypropylene microcentrifuge tube by centrifuging at 13,000 G for 60 seconds. Other similar filtration or centrifugation methods can be employed and useful results obtained. For example, using other types of microfilters may yield values somewhat higher or lower (+/−10-40%) than that obtained with the filter specified above but will still allow identification of dispersions. It is recognized that this definition of “dissolved enzalutamide” encompasses not only monomeric solvated enzalutamide molecules but also a wide range of species such as polymer/enzalutamide assemblies that have submicron dimensions such as enzalutamide aggregates, aggregates of mixtures of polymer and enzalutamide, micelles, polymeric micelles, colloidal particles, polymer/enzalutamide complexes, and other such enzalutamide-containing species that are present in the filtrate or supernatant in the specified dissolution test. […]

[5] = Glass transition temperature by modulated DSC as a function of relative humidity
Protocol: Below Tg, an amorphous material is said to be in a “glassy” state in which molecular mobility is severely restricted. […] Glass transition temperatures Tg were determined for amorphous enzalutamide, and for spray-dried dispersions (SDDs) of enzalutamide with HPMCAS-M or PVP-VA64, at <5% and 75% relative humidity (RH). Tgs were determined by modulated differential scanning calorimetry (mDSC), utilizing the following protocol. Samples (about 5 mg) were equilibrated at the desired RH overnight in an environmental chamber at ambient temperature. The samples were then loaded into pans and sealed inside the environmental chamber. The samples were analyzed on a Q1000 mDSC (TA Instruments, New Castle, Delaware). Samples were typically scanned over the temperature range of −40° C. to 180° C., at a scan rate of 2.5° C./min, and a modulation rate of ±1.5° C./min. The data sampling interval was 0.20 sec/point. The Tg was calculated based on half height.

[6] = Table 8.1, within 240 minutes, normalized for membrane area
[7] = 0 hr, before suspension in aqueous 0.5% methylcellulose
[8] = 2 hr, after suspension for 2 hr in aqueous 0.5% methylcellulose

Row | Compound | Maximum Flux [1, 6] | Enzalutamide Concentration, 0 min ([4]; 0 min) | Enzalutamide Concentration, 4 min ([4]; 4 min) | Enzalutamide Concentration, 10 min ([4]; 10 min) | Enzalutamide Concentration, 20 min ([4]; 20 min) | Enzalutamide Concentration, 40 min ([4]; 40 min) | Enzalutamide Concentration, 90 min ([4]; 90 min) | Enzalutamide Concentration, 1200 min ([4]; 1200 min) | AUC90 (area under the curve at 90 minutes) [4] | Cmax, 90 (maximum drug concentration through 90 minutes) [4] | also measured
1 | CNC(=O)c1ccc(N2C(=S)N(c3ccc(C#N)c(C(F)(F)F)c3)C(=O)C2(C)C)cc1F [Amorphous (spray-dried) enzalutamide - BREC-0035-09B(V)] | 1.3 μg/cm^2 × min | 0.0 µg/mL | 61 µg/mL | 100 µg/mL | 100 µg/mL | 110 µg/mL | 120 µg/mL | 30 µg/mL | 9,500 min*μg/mL | 120 µg/mL | fusion of particles to larger particles by SEM after storage challenge [2]: fusion of particles to form larger particles; AUC90 [3, 7]: 8,900 min · mcg/ml; Cmax 90 [3, 7]: 110 µg/mL; AUC90 [3, 8]: 8,800 min · mcg/ml; Cmax 90 [3, 8]: 100 µg/mL; Tg ([5]; 75% RH): 64.0 °C; Tg ([5]; <5% RH): 88.5 °C
2 | CNC(=O)c1ccc(N2C(=S)N(c3ccc(C#N)c(C(F)(F)F)c3)C(=O)C2(C)C)cc1F [Crystalline enzalutamide (Control 1)] | 0.4 μg/cm^2 × min | 0.0 µg/mL | 1 µg/mL | 3 µg/mL | 5 µg/mL | 6 µg/mL | 7 µg/mL | 9 µg/mL | 500 µg·min/mL | 7 µg/mL | Maximum Flux ([1]; Table 9.3): 0.4 μg/cm^2-min; In vitro dissolution, Average, 0 min ([4]; Table 9.1, 0 min): 0.32 µg/mL; In vitro dissolution, Average, 4 min ([4]; Table 9.1, 4 min): 5.23 µg/mL; In vitro dissolution, Average, 10 min ([4]; Table 9.1, 10 min): 8.04 µg/mL; In vitro dissolution, Average, 20 min ([4]; Table 9.1, 20 min): 7.69 µg/mL; In vitro dissolution, Average, 40 min ([4]; Table 9.1, 40 min): 8.65 µg/mL; In vitro dissolution, Average, 90 min ([4]; Table 9.1, 90 min): 9.14 µg/mL; In vitro dissolution, Average, 1200 min ([4]; Table 9.1, 1200 min): 12.12 µg/mL; AUC90 min ([4]; Table 9.2): 740 µg·min/mL; Cmax, 90 min ([4]; Table 9.2): 10 µg/mL
